Laboratory results published in PMC10224544, “Synthesis, Structural Elucidation and Pharmacological Applications of Cu(II) Heteroleptic Carboxylates” (Pharmaceuticals, 2023).

Assays:
[1] = biological target: acetylcholinesterase (AChE) (Electrophorus electricus, UniProt O42275); assay: biochemical; assay type: biochemical; details: for Inhibition of Acetylcholinesterase (%AChE Activity): n = 3
Experimental: The synthesized compounds were evaluated for acetylcholinesterase (ACh) and butyrylcholinesterase (BCh) enzyme inhibitory activities.
(§1) The enzymes acetylcholinesterase (AChE) and butyrylcholinesterase (BChE) play an important role in the transfer of signals and physiological function. They assist acetylcholine to hydrolyze and produce choline and acetyl group in synaptic region. So, they are considered as targets in the management of Alzheimer’s disease. Herein, the compounds under study were evaluated for their potential to inhibit acetylthiocholine iodide (AChI) and butyrylthiocholine iodide (BChI) enzymes.
(§2) The well-known Ellman’s assay was implemented to evaluate the inhibitory potential using acetylthiocholine iodide (AChI) and butyrylthiocholine iodide (BChI) as substrates, respectively. The basic principle of the assay is the hydrolysis of acetylthiocholine iodide and butyrylthiocholine iodide by their corresponding enzymes, resulting in the formation of 5-thio-2-nitrobenzoate anion.
(§3) To carry out the assay, 0.1 M buffer solution with pH 8 was prepared as per the cited literature where the pH was adjusted using KOH (potassium hydroxide). Using the freshly prepared buffer and following the dilution, final concentrations of 0.03 U/mL for AChE (518 U/mg solid) and 0.01 U/mL for BChE (7–16 U/mg) were obtained. […] After that, the final solution of each of the AChE and BChE was prepared in distilled water in the presence of […] DTNB and were stored at 8 °C. The experiment was performed by taking 205 µL of inhibitor (tested compound) along with 5 µL of prepared solutions of enzymes, followed by the addition of 5 μL DTNB reagent. They were then incubated for about 15 min in a water bath at a temperature of 30 °C. Later on, 5 µL substrate solution was added to them which were subjected to absorption check at 412 nm. […] The temperature of the spectrophotometer was adjusted at 30 °C and then, following the reaction time of 4 min, the absorbance values were noted after regular intervals. The experiment was repeated, and change in absorption with time was used to calculate the percentage activity of enzyme and enzyme inhibitor [59]. The p values, or calculated probability levels, are categorized as: 5% (p < 0.05), 1% (p < 0.01) and 0.1% (p < 0.001). p < 0.05 means statistically significant and p < 0.001 means highly statistically significant.

[2] = biological target: butyrylcholinesterase (BChE) (Equus caballus, UniProt P81908); assay: biochemical; details: for inhibition of butyrylcholinesterase (% BChE activity): n = 3
Chain of butyrylcholinesterase (BChE) (P81908 whole entry): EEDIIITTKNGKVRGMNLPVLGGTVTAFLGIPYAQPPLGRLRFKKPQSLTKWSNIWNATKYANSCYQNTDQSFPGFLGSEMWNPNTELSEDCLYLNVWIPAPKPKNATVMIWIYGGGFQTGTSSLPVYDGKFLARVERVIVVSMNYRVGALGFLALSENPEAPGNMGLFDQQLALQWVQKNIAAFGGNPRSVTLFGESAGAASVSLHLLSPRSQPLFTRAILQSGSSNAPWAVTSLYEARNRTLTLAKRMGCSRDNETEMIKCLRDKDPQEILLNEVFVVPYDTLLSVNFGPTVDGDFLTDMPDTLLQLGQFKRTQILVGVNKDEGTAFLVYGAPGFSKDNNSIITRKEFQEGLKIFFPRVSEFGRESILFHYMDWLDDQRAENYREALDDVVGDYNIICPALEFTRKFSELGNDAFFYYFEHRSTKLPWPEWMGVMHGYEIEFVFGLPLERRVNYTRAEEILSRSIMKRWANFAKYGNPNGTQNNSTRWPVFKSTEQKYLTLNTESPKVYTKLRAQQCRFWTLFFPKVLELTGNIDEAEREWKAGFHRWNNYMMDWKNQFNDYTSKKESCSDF
Experimental: as §1, §2, §3

[3] = DPPH scavenging assay; details: for DPPH Free Radical Scavenging Ability: mean ± S.E.M, n = 3
From the text: The antioxidant potential of the free acids and their Cu(II) carboxylates was explored via the DPPH method using ascorbic acid as a reference. The DPPH, with a single unpaired electron, is capable of accepting a hydrogen or electron and gives a strong absorption at 517 nm. The absorption generally decreases when it accepts a hydrogen or electron from an antioxidant, forming a stable molecule. The results given in Table 5 indicate that the compounds under study show a moderate level of antioxidant potential. This activity may be attributed to the various structural and electronic factors like coordination geometry, redox properties, chelate ring size, degree of unsaturation, etc.. The transfer of proton or electron from an antioxidant to DPPH results in the formation of species that undergo other reactions like coupling, fragmentation, and addition, which affect the rate and stoichiometry of the reaction.
The compounds under study were subjected to DPPH scavenging ability test as per cited literature. A 0.004% solution of reagent DPPH was added to the different concentrations of tested compounds (i.e., 125, 250, 500 and 1000 μg/mL) and the reaction mixture was incubated subsequently for about thirty minutes in dark. Ascorbic acid was used as positive control. The UV-3000 O.R.I. Germany was used to record the change in absorption of the reaction mixture at 517 nm and the percentage scavenging ability of the compounds under study was determined using formula: % scavenging activity =Absorbance of control−Absorbance of compounds /Absorbance of control×100
The experiments were repeated thrice. The GraphPad Prism® (version 4.0, Sandiego, CA, USA) was used to calculate the IC50 values.

[4] = Hydrogen peroxide scavenging assay; details: for H2O2 free radical scavenging ability: mean ± S.E.M, n = 3
Experimental: In addition to DPPH the ligand acids and their complexes were also evaluated for their peroxide scavenging ability test. Hydrogen peroxide (H2O2) is a biologically important, non-radical reactive oxygen species (ROS) that can influence several cellular processes. It is a weak oxidizing agent and can inactivate a few enzymes directly, usually via oxidation of essential thiol (-SH) groups. It can cross cell membranes rapidly, and inside the cell, H2O2 probably reacts with Fe^2+ (and possibly Cu^2+) ions to form the hydroxyl radical, which may be the origin of many of its toxic effects. It is, therefore, biologically advantageous for cells to control the amount of hydrogen peroxide that is allowed to accumulate.
The ligand acids and their Cu(II) carboxylates were further subjected to H2O2 scavenging ability test potential by following the procedure as per cited literature. A 2 mM solution of H2O2 was made in 50 mM phosphate buffer having a pH 7.4. In the next step, 0.1 mL of the screened compounds was added to the 0.3 mL (50 mM) of phosphate buffer, then 0.6 mL of H2O2 was added and the solution was vortexed. After following the incubation period of 10 min, the absorption was 230 nm in comparison to the blank.

[5] = DPPH scavenging assay; details: Comp. Conc. 62.5 µg/mL; mean ± S.E.M, n = 3

Chain of acetylcholinesterase (AChE) (O42275 24-633): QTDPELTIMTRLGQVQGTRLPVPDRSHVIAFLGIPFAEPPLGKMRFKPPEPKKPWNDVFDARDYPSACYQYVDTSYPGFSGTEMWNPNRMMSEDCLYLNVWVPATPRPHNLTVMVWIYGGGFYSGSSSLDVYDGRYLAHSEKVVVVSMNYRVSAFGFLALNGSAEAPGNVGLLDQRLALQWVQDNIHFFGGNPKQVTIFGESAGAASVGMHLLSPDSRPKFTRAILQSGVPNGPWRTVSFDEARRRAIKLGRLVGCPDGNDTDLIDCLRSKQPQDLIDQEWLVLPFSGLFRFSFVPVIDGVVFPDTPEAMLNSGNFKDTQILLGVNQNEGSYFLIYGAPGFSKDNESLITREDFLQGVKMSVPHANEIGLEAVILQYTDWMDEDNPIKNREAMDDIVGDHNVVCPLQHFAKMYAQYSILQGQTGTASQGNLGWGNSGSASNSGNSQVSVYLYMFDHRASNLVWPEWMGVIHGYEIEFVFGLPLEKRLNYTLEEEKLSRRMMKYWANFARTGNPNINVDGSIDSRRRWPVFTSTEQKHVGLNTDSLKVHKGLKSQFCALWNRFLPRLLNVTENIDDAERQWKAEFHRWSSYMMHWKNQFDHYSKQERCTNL

Question: Which “IC50, Inhibition of Acetylcholinesterase” value [1] does the source give for `N#Cc1cccnc1.N#Cc1cccnc1.O=C([O-])Cc1cccc(Cl)c1.O=C([O-])Cc1cccc(Cl)c1.O=C([O-])Cc1cccc(Cl)c1.O=C([O-])Cc1cccc(Cl)c1.[Cu+2].[Cu+2]` [Complex 4, Cu2(3-ClC6H4COO)4(3-CNPy)2] here?
Answer: Its value is 6 µg/mL.

Question: And the “Inhibition of Acetylcholinesterase (%AChE Activity)” value (“Inhibition … (%AChE Activity)” below) ([1]; Comp. Conc. 62.5 µg/mL)?
Answer: The value was 67.90 ± 1.16 %.

Question: And the “Inhibition … (%AChE Activity)” value ([1]; Comp. Conc. 125 µg/mL)?
Answer: Its value is 72.34 ± 0.55 %.

Question: And the “Inhibition … (%AChE Activity)” value ([1]; Comp. Conc. 250 µg/mL)?
Answer: The value was 78.36 ± 0.49 ^⸸ %.

Question: And the “Inhibition … (%AChE Activity)” value ([1]; Comp. Conc. 500 µg/mL)?
Answer: The value was 83.39 ± 0.49 %.

Question: What about the “Inhibition … (%AChE Activity)” value ([1]; Comp. Conc. 1000 µg/mL) of the same compound?
Answer: Its value is 89.39 ± 0.60 %.

Question: What about the “IC50, inhibition of butyrylcholinesterase” value [2] of the same compound?
Answer: Its value is 03 µg/mL.

Question: And the “inhibition of butyrylcholinesterase (% BChE activity)” value (shortened to “inhibition … (% BChE activity)”) ([2]; Comp. Conc. 62.5 µg/mL)?
Answer: The value was 68.52 ± 0.38 %.

Question: What about the “inhibition … (% BChE activity)” value ([2]; Comp. Conc. 125 µg/mL) of the same compound?
Answer: Its value is 72.64 ± 0.16 %.

Question: And the “inhibition … (% BChE activity)” value ([2]; Comp. Conc. 250 µg/mL)?
Answer: Its value is 77.61 ± 1.70 %.

Question: And the “inhibition … (% BChE activity)” value ([2]; Comp. Conc. 500 µg/mL)?
Answer: The value was 81.94 ± 0.45 %.

Question: And the “inhibition … (% BChE activity)” value ([2]; Comp. Conc. 1000 µg/mL)?
Answer: The value was 86.47 ± 0.22 ^⸸ %.

Question: And the “IC50, DPPH Free Radical Scavenging Ability” value [3]?
Answer: Its value is 8.45 µg/mL.

Question: What about the “DPPH Free Radical Scavenging Ability” value ([3]; Comp. Conc. 125 µg/mL) of the same compound?
Answer: Its value is 68.30 ± 0.64 %.

Question: What about the “DPPH Free Radical Scavenging Ability” value ([3]; Comp. Conc. 250 µg/mL) of the same compound?
Answer: Its value is 73.34 ± 0.63 %.

Question: And the “DPPH Free Radical Scavenging Ability” value ([3]; Comp. Conc. 500 µg/mL)?
Answer: The value was 78.30 ± 0.64 %.

Question: And the “DPPH Free Radical Scavenging Ability” value ([3]; Comp. Conc. 1000 µg/mL)?
Answer: The value was 83.17 ± 0.72 %.

Question: What about the “IC50, H2O2 free radical scavenging ability” value [4] of the same compound?
Answer: Its value is 8.71 µg/mL.

Question: And the “H2O2 free radical scavenging ability” value ([4]; Comp. Conc. 62.5 µg/mL)?
Answer: Its value is 63.47 ± 0.56 %.

Question: And the “H2O2 free radical scavenging ability” value ([4]; Comp. Conc. 125 µg/mL)?
Answer: The value was 67.74 ± 0.61 %.

Question: What about the “H2O2 free radical scavenging ability” value ([4]; Comp. Conc. 250 µg/mL) of the same compound?
Answer: Its value is 73.67 ± 0.61 %.

Question: And the “H2O2 free radical scavenging ability” value ([4]; Comp. Conc. 500 µg/mL)?
Answer: The value was 78.76 ± 0.58 %.

Question: What about the “H2O2 free radical scavenging ability” value ([4]; Comp. Conc. 1000 µg/mL) of the same compound?
Answer: The value was 85.00 ± 0.30 ^⸸ %.

Question: What about the “DPPH Free Radical Scavenging Ability” value [5] of the same compound?
Answer: The value was 61.93 ± 1.13 %.
